Data on nine molecules can be found in patent US8834910B2, “Sustained release dispenser comprising two or more sex pheromone substances” (Shin-Etsu Chemical Co., Ltd., priority 2003, dated 2014).

The data set can be described thus: Vapor pressure by the gas flow method (OECD guideline). As to conditions: head: 20° C.; text: gas flow method at 25° C. The data set is classed as physicochemical. The protocol:
Chemical structure, relation with a target insect and carbon number of each component are listed in the pest control of the pear and peach in Japan. The vapor pressure was measured by the gas flow method at 25° C. according to the “Addendum to the OECD chemical test guideline, issues 7 and 8” (Adopted on Jul. 27, 1995).
`CCCC/C=C\CCCCCCCCOC(C)=O` [Z-9-tetradecenyl acetate]: the “Vapor pressure (20° C.) (Pa)” value is listed as 0.100 Pa.

As to `CCC/C=C\CCCCCCCO` [Z-8-dodecene-1-ol], the “Vapor pressure (20° C.) (Pa)” value worked out at 0.980 Pa.

Regarding `CC/C=C\CCCCCCCCOC(C)=O` [Z-9-dodecenyl acetate], the “Vapor pressure (20° C.) (Pa)” value was 0.267 Pa.

`CC/C=C\CCCCCCCCCCOC(C)=O` [Z-11-tetradecenyl acetate]: the “Vapor pressure (20° C.) (Pa)” value is listed as 0.100 Pa.

Regarding `CCCCCC/C=C\CCC(=O)CCCCCCCCC` [Z-13-icosen-10-one], the “Vapor pressure (20° C.) (Pa)” value came to 0.005 Pa.

For `CCC/C=C\CCCCCCCOC(C)=O` [Z-8-dodecenyl acetate], the “Vapor pressure (20° C.) (Pa)” value is recorded as 0.267 Pa.

With `C=CCCCCCCCCCCOC(C)=O` [11-dodecenyl acetate], the “Vapor pressure (20° C.) (Pa)” value was found to be 0.246 Pa.

As for `CC/C=C\CCCCCCCCCCO` [Z-11-tetradecene-1-ol], the “Vapor pressure (20° C.) (Pa)” value came out at 0.070 Pa.

For the molecule `CCC(C)CCCCCCCCCOC(C)=O` (stereo not drawn) [10-methyldodecyl acetate], the “Vapor pressure (20° C.) (Pa)” value was 0.186 Pa.
